The text below walks through data of PubChem BioAssay (NCI).

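1) Cells in 96-well plates. 2) Compound, 48 h, 5 concentrations. 3) Linear interpolation between surrounding doses. 4) Unreached endpoint = highest concentration. TGI denotes the concentration required for complete inhibition of growth.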

Among the test systems are SW-620 colon; SF-539 CNS; NCI/ADR-RES ovarian; EKVX NSCLC; UACC-257 melanoma; DU-145 prostate; NCI-H23 lung; SK-OV-3 ovarian; MOLT-4 leukemia; ACHN renal; M14 melanoma; OVCAR-8 ovarian; SR leukemia; SN12C renal; SK-MEL-2 melanoma; SNB-75 CNS.
What all share (assay): NCI tumour cell line growth inhibition, 48 h

In the case of `Clc1ccc(C2=NN=C3C(c4ccccc4)=Nc4ccccc4N3C2)cc1`, the TGI in the experiment on SW-620 colon was over 100 µM; in the experiment with SF-539 CNS, over 100 µM; in the experiment with NCI/ADR-RES ovarian, over 100 µM; with EKVX NSCLC, over 27.1 µM; with UACC-257 melanoma, over 100 µM; in the experiment on DU-145 prostate, over 41.9 µM. Besides, the TGI in the experiment with NCI-H23 lung was over 100 µM; with SK-OV-3 ovarian, over 100 µM; in the experiment with MOLT-4 leukemia it was over 23.2 µM; with ACHN renal it was over 100 µM; in the experiment on M14 melanoma it was over 25.8 µM; with OVCAR-8 ovarian, over 100 µM. The TGI in the experiment on SR leukemia is over 21.9 µM; with SN12C renal it was over 100 µM; in the experiment on SK-MEL-2 melanoma it was over 100 µM.

Turning to `O=C(NCCN1CCOCC1)c1cn2c(ccc3sc4ccccc4c(=O)c32)n1`, the TGI is 25.3 µM with SW-620 colon; over 100 µM in the experiment with SF-539 CNS; over 100 µM in the experiment on NCI/ADR-RES ovarian; over 100 µM in the experiment on EKVX NSCLC; over 100 µM with UACC-257 melanoma; over 100 µM in the experiment on DU-145 prostate. Also, the TGI with SNB-75 CNS was 59.4 µM; in the experiment with NCI-H23 lung, over 100 µM; in the experiment with MOLT-4 leukemia, over 100 µM; in the experiment on ACHN renal it was over 100 µM; in the experiment on OVCAR-8 ovarian, over 100 µM; in the experiment with SR leukemia, over 100 µM. The compound also came in with a TGI in the experiment on SN12C renal of over 100 µM.

For the compound `CCN(CC)CCCNc1ccc2nc(C)n3c4ccc(O)cc4c(=O)c1c23`, the TGI worked out at 14.9 µM in the experiment on SW-620 colon; 22.7 µM in the experiment on SF-539 CNS; 29.6 µM in the experiment with NCI/ADR-RES ovarian; 24.4 µM in the experiment on EKVX NSCLC; 29 µM with UACC-257 melanoma; 19.7 µM with DU-145 prostate. Moreover, the TGI in the experiment with SNB-75 CNS stood at 7.69 µM; in the experiment on NCI-H23 lung, 15.8 µM; with SK-OV-3 ovarian it was 25.2 µM; in the experiment on MOLT-4 leukemia it was 17 µM; in the experiment with ACHN renal it was 15.2 µM; in the experiment with M14 melanoma, 21.5 µM. Also, the TGI in the experiment on OVCAR-8 ovarian was determined as 19.6 µM; with SN12C renal, 18.7 µM; with SK-MEL-2 melanoma it was 21.3 µM.

Turning to `O=C(O)CCC(=O)c1ccc2c(c1)C(C(=O)O)CC2` (stereo unspecified), the TGI in the experiment with SW-620 colon, in the experiment on SF-539 CNS, in the experiment with NCI/ADR-RES ovarian, in the experiment on EKVX NSCLC, with UACC-257 melanoma and with DU-145 prostate was over 100 µM throughout. For the same compound, the TGI with NCI-H23 lung, with SK-OV-3 ovarian, in the experiment on MOLT-4 leukemia, in the experiment on ACHN renal, in the experiment with M14 melanoma and in the experiment with OVCAR-8 ovarian was over 100 µM throughout. Besides, the TGI with SR leukemia, in the experiment with SN12C renal and in the experiment with SK-MEL-2 melanoma was over 100 µM throughout.

On to `COC(=O)c1ccc(/C=C2\Oc3ccccc3C2=O)cc1`, for which the TGI with SW-620 colon, in the experiment with SF-539 CNS, in the experiment with NCI/ADR-RES ovarian, in the experiment on EKVX NSCLC, with UACC-257 melanoma and in the experiment with DU-145 prostate was over 100 µM throughout. Moreover, the TGI with SNB-75 CNS, in the experiment with NCI-H23 lung, with SK-OV-3 ovarian, with MOLT-4 leukemia, with ACHN renal and in the experiment on M14 melanoma was over 100 µM throughout. For the same compound, the TGI in the experiment with OVCAR-8 ovarian, with SR leukemia and in the experiment on SN12C renal was over 100 µM each time.

Take `Cc1ccc(SC2C(=O)C3CC(OCc4ccccc4)C2(C)C3(C)C)cc1` (stereo unspecified): the TGI with SW-620 colon, in the experiment on SF-539 CNS, in the experiment with NCI/ADR-RES ovarian, with EKVX NSCLC, in the experiment with DU-145 prostate and in the experiment on NCI-H23 lung was over 100 µM each time. Also, the TGI in the experiment on SK-OV-3 ovarian, in the experiment on MOLT-4 leukemia, in the experiment on ACHN renal, in the experiment on M14 melanoma, with OVCAR-8 ovarian and in the experiment with SR leukemia was over 100 µM throughout. Besides, the TGI with SN12C renal and in the experiment with SK-MEL-2 melanoma was over 100 µM throughout.

With `CN(C(=O)Cc1ccccc1)n1cnn(CC(=O)OC(C)(C)C)c1=S`, the TGI with SW-620 colon, with SF-539 CNS, in the experiment on NCI/ADR-RES ovarian, in the experiment on EKVX NSCLC, in the experiment with UACC-257 melanoma and in the experiment on DU-145 prostate was over 10 µM throughout. Further, the TGI in the experiment with SNB-75 CNS, in the experiment with NCI-H23 lung, in the experiment with SK-OV-3 ovarian, in the experiment with MOLT-4 leukemia, in the experiment on ACHN renal and in the experiment with M14 melanoma was over 10 µM each time. The TGI in the experiment with OVCAR-8 ovarian, in the experiment on SR leukemia and with SN12C renal was over 10 µM each time.

As to `CN(C)c1ccc(/C=C2\N=C(NNc3ccccc3)NC2=O)cc1`, the TGI in the experiment on SW-620 colon is 82.3 µM; in the experiment on SF-539 CNS, 43.3 µM; with NCI/ADR-RES ovarian it was over 100 µM; in the experiment on EKVX NSCLC, 68.1 µM; in the experiment on UACC-257 melanoma it was 38.5 µM; in the experiment with DU-145 prostate, over 100 µM. The TGI with SNB-75 CNS was 78.9 µM; with NCI-H23 lung, 65.3 µM; with SK-OV-3 ovarian, over 100 µM; with MOLT-4 leukemia it was over 100 µM; in the experiment on ACHN renal, 61.9 µM; in the experiment on M14 melanoma, over 100 µM. Besides, the TGI in the experiment with OVCAR-8 ovarian was over 100 µM; in the experiment on SN12C renal, 44.6 µM; in the experiment on SK-MEL-2 melanoma, 44 µM.

Turning to `[N-]=[N+]=NC1OC(=O)C(Cl)=C1N=P(c1ccccc1)(c1ccccc1)c1ccccc1` (stereo unspecified), the TGI in the experiment with SW-620 colon, with SF-539 CNS, in the experiment on NCI/ADR-RES ovarian, with EKVX NSCLC, in the experiment on UACC-257 melanoma and in the experiment with DU-145 prostate was over 10 µM in each case. Further, the TGI is over 10 µM in the experiment on SNB-75 CNS; over 10 µM with SK-OV-3 ovarian; 8.72 µM in the experiment with MOLT-4 leukemia; over 10 µM in the experiment on ACHN renal; over 10 µM in the experiment with M14 melanoma; over 10 µM in the experiment with OVCAR-8 ovarian. The TGI in the experiment on SN12C renal and in the experiment with SK-MEL-2 melanoma was over 10 µM in each case.
